Results taken from the NIST ThermoML archive (doi:10.1021/acs.jced.5b00813).
± gives the expanded uncertainty stated by the source.

Key:
[1] = xn = mol fraction of the nth substance listed; conditions: 298.15 K, 100 kPa, Liquid, Vibrating tube method
[2] = excess molar enthalpy (molar enthalpy of mixing); xn = mol fraction of the nth substance listed; conditions: 298.15 K, 100 kPa, Liquid, Calvet calorimetry

CCCCC(=O)OC [methyl pentanoate] + CC(C)CC(C)(C)C
mass density ([1]; x2 = 0): 884.84 ± 1 kg/m3 | mass density ([1]; x2 = 0.0537): 871.44 ± 1 kg/m3 | mass density ([1]; x2 = 0.1588): 846.38 ± 1 kg/m3 | mass density ([1]; x2 = 0.2505): 825.53 ± 1 kg/m3 | mass density ([1]; x2 = 0.3544): 803.1 ± 1 kg/m3 | mass density ([1]; x2 = 0.4518): 783.06 ± 1 kg/m3 | mass density ([1]; x2 = 0.4984): 773.84 ± 1 kg/m3 | mass density ([1]; x2 = 0.5417): 765.44 ± 1 kg/m3 | mass density ([1]; x2 = 0.642): 746.75 ± 1 kg/m3 | mass density ([1]; x2 = 0.6854): 738.97 ± 1 kg/m3 | mass density ([1]; x2 = 0.7425): 728.98 ± 1 kg/m3 | mass density ([1]; x2 = 0.7967): 719.79 ± 1 kg/m3 | mass density ([1]; x2 = 0.8148): 716.75 ± 1 kg/m3 | mass density ([1]; x2 = 0.8415): 712.32 ± 1 kg/m3 | mass density ([1]; x2 = 0.8779): 706.53 ± 1 kg/m3 | mass density ([1]; x2 = 0.8999): 702.99 ± 1 kg/m3 | mass density ([1]; x2 = 0.9409): 696.52 ± 1 kg/m3 | excess molar enthalpy ([2]; x2 = 0.0438): 0.0344 ± 0.000956 kcal/mol | excess molar enthalpy ([2]; x2 = 0.0963): 0.0672 ± 0.00143 kcal/mol | excess molar enthalpy ([2]; x2 = 0.1589): 0.105 ± 0.00239 kcal/mol | excess molar enthalpy ([2]; x2 = 0.2206): 0.137 ± 0.00287 kcal/mol | excess molar enthalpy ([2]; x2 = 0.2692): 0.159 ± 0.00335 kcal/mol | excess molar enthalpy ([2]; x2 = 0.3311): 0.177 ± 0.00382 kcal/mol | excess molar enthalpy ([2]; x2 = 0.3825): 0.191 ± 0.00406 kcal/mol | excess molar enthalpy ([2]; x2 = 0.436): 0.201 ± 0.0043 kcal/mol | excess molar enthalpy ([2]; x2 = 0.4818): 0.207 ± 0.00454 kcal/mol | excess molar enthalpy ([2]; x2 = 0.5239): 0.211 ± 0.00454 kcal/mol | excess molar enthalpy ([2]; x2 = 0.5638): 0.212 ± 0.00454 kcal/mol | excess molar enthalpy ([2]; x2 = 0.5679): 0.211 ± 0.00454 kcal/mol | excess molar enthalpy ([2]; x2 = 0.6024): 0.208 ± 0.00454 kcal/mol | excess molar enthalpy ([2]; x2 = 0.6258): 0.205 ± 0.0043 kcal/mol | excess molar enthalpy ([2]; x2 = 0.7031): 0.189 ± 0.00406 kcal/mol | excess molar enthalpy ([2]; x2 = 0.7813): 0.157 ± 0.00335 kcal/mol | excess molar enthalpy ([2]; x2 = 0.8452): 0.121 ± 0.00263 kcal/mol | excess molar enthalpy ([2]; x2 = 0.9243): 0.071 ± 0.00167 kcal/mol

COC(C)=O [methyl ethanoate] + CCCCCCCC
mass density ([1]; x2 = 0): 927.16 ± 1 kg/m3 | mass density ([1]; x2 = 0.0493): 901.46 ± 1 kg/m3 | mass density ([1]; x2 = 0.1011): 878.04 ± 1 kg/m3 | mass density ([1]; x2 = 0.1517): 857.91 ± 1 kg/m3 | mass density ([1]; x2 = 0.2033): 839.55 ± 1 kg/m3 | mass density ([1]; x2 = 0.253): 823.66 ± 1 kg/m3 | mass density ([1]; x2 = 0.3008): 809.86 ± 1 kg/m3 | mass density ([1]; x2 = 0.3471): 797.79 ± 1 kg/m3 | mass density ([1]; x2 = 0.3946): 786.15 ± 1 kg/m3 | mass density ([1]; x2 = 0.4523): 773.45 ± 1 kg/m3 | mass density ([1]; x2 = 0.4951): 764.76 ± 1 kg/m3 | mass density ([1]; x2 = 0.5307): 758.11 ± 1 kg/m3 | mass density ([1]; x2 = 0.5777): 749.93 ± 1 kg/m3 | mass density ([1]; x2 = 0.5898): 747.92 ± 1 kg/m3 | mass density ([1]; x2 = 0.6146): 743.98 ± 1 kg/m3 | mass density ([1]; x2 = 0.6388): 740.27 ± 1 kg/m3 | mass density ([1]; x2 = 0.6699): 735.52 ± 1 kg/m3 | mass density ([1]; x2 = 0.7238): 728.1 ± 1 kg/m3 | mass density ([1]; x2 = 0.7841): 720.49 ± 1 kg/m3 | mass density ([1]; x2 = 0.8333): 714.64 ± 1 kg/m3 | mass density ([1]; x2 = 0.8887): 708.75 ± 1 kg/m3 | mass density ([1]; x2 = 0.9311): 704.69 ± 1 kg/m3 | mass density ([1]; x2 = 0.9585): 702.21 ± 1 kg/m3 | excess molar enthalpy ([2]; x2 = 0.0466): 0.0992 ± 0.00239 kcal/mol | excess molar enthalpy ([2]; x2 = 0.1009): 0.194 ± 0.0043 kcal/mol | excess molar enthalpy ([2]; x2 = 0.1504): 0.271 ± 0.00574 kcal/mol | excess molar enthalpy ([2]; x2 = 0.2057): 0.338 ± 0.00717 kcal/mol | excess molar enthalpy ([2]; x2 = 0.258): 0.391 ± 0.00837 kcal/mol | excess molar enthalpy ([2]; x2 = 0.3043): 0.427 ± 0.00908 kcal/mol | excess molar enthalpy ([2]; x2 = 0.3516): 0.455 ± 0.0098 kcal/mol | excess molar enthalpy ([2]; x2 = 0.3642): 0.464 ± 0.0098 kcal/mol | excess molar enthalpy ([2]; x2 = 0.3999): 0.479 ± 0.0103 kcal/mol | excess molar enthalpy ([2]; x2 = 0.446): 0.487 ± 0.0103 kcal/mol | excess molar enthalpy ([2]; x2 = 0.5006): 0.487 ± 0.0103 kcal/mol | excess molar enthalpy ([2]; x2 = 0.5742): 0.467 ± 0.01 kcal/mol | excess molar enthalpy ([2]; x2 = 0.6631): 0.417 ± 0.00884 kcal/mol | excess molar enthalpy ([2]; x2 = 0.7615): 0.331 ± 0.00717 kcal/mol | excess molar enthalpy ([2]; x2 = 0.8485): 0.226 ± 0.00478 kcal/mol | excess molar enthalpy ([2]; x2 = 0.9324): 0.107 ± 0.00239 kcal/mol
